Results from US12404232B2, “Compounds and compositions for intracellular delivery of therapeutic agents” (ModernaTX, Inc., priority 2015, dated 2025).

Tests used:
mice = test: Luc expression (total flux) after intramuscular administration; format: in vivo; settings: 6 hours after intramuscular administration, Luc mRNA and H10 mRNA
Method: The numbers 1-7 in this figure correspond to MC3, Compounds 168-170, and 173-175 respectively.
In order to monitor how effectively various nanoparticle compositions deliver therapeutic and/or prophylactics to targeted cells, different nanoparticle compositions including a particular therapeutic and/or prophylactic (for example, a modified or naturally occurring RNA such as an mRNA) are prepared and administered to rodent populations. Mice are intravenously, intramuscularly, intraarterially, or intratumorally administered a single dose including a nanoparticle composition with a formulation such as those provided in Example 3. In some instances, mice may be made to inhale doses. Dose sizes may range from 0.001 mg/kg to 10 mg/kg, where 10 mg/kg describes a dose including 10 mg of a therapeutic and/or prophylactic in a nanoparticle composition for each 1 kg of body mass of the mouse. A control composition including PBS may also be employed.
The total flux (measured by area under the curve, AUC) induced by administration of a formulation including a given lipid relative to that induced by administration of a formulation including MC3 was also measured for several lipids.
Sample formulations including both modified luciferase (Luc) mRNA and H10 mRNA were prepared and administered intramuscularly and the resulting expression and immunogenicity were evaluated simultaneously. Formulations including compounds according to Formula (I), (IA), (II), (IIa), (IIb), (IIc), (IId) or (IIe) were prepared and administered at doses of 0.001 and 0.01 mpk (e.g., doses of 0.0005 mpk of a formulation including Luc mRNA and a formulation including H10 mRNA or doses of 0.005 mpk of a formulation including Luc mRNA and a formulation including H10 mRNA).
Sample formulations including modified luciferase (Luc) mRNA prepared and administered intramuscularly and the resulting expression and immunogenicity were evaluated simultaneously. Formulations including compounds according to Formula (I), (IA), (II), (IIa), (IIb), (IIc), (IId) or (IIe) were prepared and administered at dose of […] 0.01 mpk.
The fluxes measured upon intravenous and intramuscular administration are compared in Table 6. Fluxes are presented as fold increase over that measured for MC3 formulations.

rats = test: Residual lipid levels in liver and spleen of rats (UPLC-MS quantification); format: in vivo, rat; settings: rats, 2 mpk, 48 h; assuming 300 g rat and 15 g liver
Method: At 48 h liver tissue was harvested for lipid quantification. To pre-weighed tissues, Milli-Q water was added (900 μL water per 100 mg tissue). Tissues were homogenized using an Omni probe homogenizer until uniform. 50 μL of samples and matrix calibration standards were aliquoted into a 96-well plate. 50 μL of blank matrix for matrix blanks and control blanks were aliquoted. 400 μL IS spiking solution were manually added to all samples except matrix blanks. 400 μL of 50:50 ACN:IPA were manually added to matrix blanks. The plate was covered and the samples vortexed and centrifuged for 5 minutes at >3000 rpm. 200 μL of the samples were transferred into a clean 96-well plate for analysis. Samples were analyzed on a Waters Acquity UPLC using a Higgins Analytical Clipeus C8 column ([…], 30×2.1 mm) and a gradient of either 70-95% or 60-95% (Mobile Phase A: 5 mM ammonium formate in 50:50:1 H2O:MeOH:formic acid; Mobile Phase B: 5 mM ammonium formate in 100:1 MeOH:formic acid) over 1.3 min at 1.2 mL/min (column temperature 55° C.). Detection was based on electrospray ionization (ESI) in positive mode using a Sciex API5500 Mass Spectrometer.
The expression of hEPO in rats intravenously administered a nanoparticle composition at a dose of 0.2 mpk or 2.0 mpk was measured at 6 hours. Table 16 summarize the ratio of hEPO expression levels using various nanoparticle compositions as compared to the hEPO expression level using MC3 formulation and the lipid levels in the liver measured 48 hours after administration, as described above. Tables 17 and 18 summarize the lipid levels in the liver and spleen measured 48 hours after administration of Compounds 28, 33, 53, and 54. Liver and spleen levels represent the average values calculated for 3 rats in each group. As is shown in Tables 17 and 18, less than 10% of Compounds 28, 33, 53, and 54 remained in the liver after 48 hours, while greater than 60% of MC3 remained.
Table 19 summarizes the hEPO expression, IP-10 induction, liver and spleen levels, and alanine aminotransferase (ALT) and aspartate aminotransferase (AST) measured upon intravenous administration of formulations including Compounds 48, 49, and 50 to rat at 0.2 and 2 mpk and hEPO mRNA. hEPO concentrations were measured 6 hours after administration, while cytokine induction and liver and spleen levels were measured 48 hours after administration. hEPO and IP-10 concentrations are presented in pg/ml, while liver levels are provided in ng/g. ALT and AST levels are presented in international units.
The expression of hEPO induced by intravenous administration to rats of nanoparticle compositions at various doses was measured at 2, 4, 6, 8, 24, and 48 hour time points. FIGS. 3-6 respectively summarize the hEPO expression measured upon intravenous administration of formulations including Compounds 26, 18, 25, and MC3 to rat at various doses. The lipid levels of Compound 26 in the liver after 48 hours were about 19%.
The expression of hEPO and lipid levels in the liver and spleen in rats intravenously administered a nanoparticle composition at a dose of 0.2 mpk was measured at various timepoints. Compounds 18 and 25 were selected for comparison with MC3. Lipids were formulated according to the standard MC3 formulation described above. Rats were administered intravenously a single 0.2 mpk dose and expression monitored at 0.25, 0.5, 1, 2, 4, 8, 24, and 48 hours after administration.

[1] = Particle size and polydispersity index of nanoparticle compositions (Zetasizer Nano ZS); format: physicochemical; settings: for PDI: nanoparticle composition 50:10:38.5:1.5 mol % (Table 1A); for Size (nm): nanoparticle composition lipid:DSPC:cholesterol:PEG-DMG 50:10:38.5:1.5 mol %, mRNA encoding Luc or hEPO (Table 1A)
Source text: Nanoparticle compositions may be characterized by a variety of methods. For example, microscopy (e.g., transmission electron microscopy or scanning electron microscopy) may be used to examine the morphology and size distribution of a nanoparticle composition. Dynamic light scattering or potentiometry (e.g., potentiometric titrations) may be used to measure zeta potentials. Dynamic light scattering may also be utilized to determine particle sizes. Instruments such as the Zetasizer Nano ZS (Malvern Instruments Ltd, Malvern, Worcestershire, UK) may also be used to measure multiple characteristics of a nanoparticle composition, such as particle size, polydispersity index, and zeta potential.
A Zetasizer Nano ZS (Malvern Instruments Ltd, Malvern, Worcestershire, UK) can be used to determine the particle size, the polydispersity index (PDI) and the zeta potential of the nanoparticle compositions in 1×PBS in determining particle size and 15 mM PBS in determining zeta potential.
(§1) Initial studies were performed to compare the delivery efficiency of nanoparticle compositions including various compounds according to Formula (I), (IA), (II), (IIa), (IIb), (IIc), (IId) or (IIe). The cationic lipid MC3 is a current standard in the art. Accordingly, the standard MC3 formulation including about 50 mol % MC3, about 10 mol % DSPC, about 38.5 mol % cholesterol, and about 1.5 mol % PEG-DMG was used as a basis for this study. Nanoparticle compositions including DSPC as a phospholipid, cholesterol as a structural lipid, PEG-DMG as a PEG lipid, an RNA, and a compound according to Formula (I), (IA), (II), (IIa), (IIb), (IIc), (IId) or (IIe) selected from Compounds 1-159, 168-170, and 173-175 were prepared according to or via methods similar to those described in Examples 1 and 2. The ratios of the lipids were 50:10:38.5:1.5 mol % for the lipid according to Formula (I), (IA), (II), (IIa), (IIb), (IIc), (IId) or (IIe):DSPC:cholesterol:PEG-DMG. The RNA used was an mRNA encoding G5 luciferase (Luc) or G5 hEPO. Tables 1A-1B summarize the content and characteristics of the formulations. […]

[2] = Encapsulation of RNA by the nanoparticle composition (QUANT-IT RIBOGREEN RNA assay); format: physicochemical; settings: nanoparticle composition 50:10:38.5:1.5 mol % (Table 1A)
Source text: The efficiency of encapsulation of a therapeutic and/or prophylactic describes the amount of therapeutic and/or prophylactic that is encapsulated or otherwise associated with a nanoparticle composition after preparation, relative to the initial amount provided. The encapsulation efficiency is desirably high (e.g., close to 100%). The encapsulation efficiency may be measured, for example, by comparing the amount of therapeutic and/or prophylactic in a solution containing the nanoparticle composition before and after breaking up the nanoparticle composition with one or more organic solvents or detergents. Fluorescence may be used to measure the amount of free therapeutic and/or prophylactic (e.g., RNA) in a solution. For the nanoparticle compositions described herein, the encapsulation efficiency of a therapeutic and/or prophylactic may be at least 50%, for example 50%, 55%, 60%, 65%, 70%, 75%, 80%, 85%, 90%, 91%, 92%, 93%, 94%, 95%, 96%, 97%, 98%, 99%, or 100%. In some embodiments, the encapsulation efficiency may be at least 80%. In certain embodiments, the encapsulation efficiency may be at least 90%.
For nanoparticle compositions including an RNA, a QUANT-IT™ RIBOGREEN® RNA assay (Invitrogen Corporation Carlsbad, CA) can be used to evaluate the encapsulation of an RNA by the nanoparticle composition. The samples are diluted to a concentration of approximately […] in a TE buffer solution (10 mM Tris-HCl, 1 mM EDTA, pH 7.5). 50 μL of the diluted samples are transferred to a polystyrene 96 well plate and either 50 μL of TE buffer or 50 μL of a 2% Triton X-100 solution is added to the wells. The plate is incubated at a temperature of 37° C. for 15 minutes. The RIBOGREEN® reagent is diluted 1:100 in TE buffer, and 100 μL of this solution is added to each well. The fluorescence intensity can be measured using a fluorescence plate reader (Wallac Victor 1420 Multilablel Counter; Perkin Elmer, Waltham, MA) at an excitation wavelength of, for example, about 480 nm and an emission wavelength of, for example, about 520 nm. The fluorescence values of the reagent blank are subtracted from that of each of the samples and the percentage of free RNA is determined by dividing the fluorescence intensity of the intact sample (without addition of Triton X-100) by the fluorescence value of the disrupted sample (caused by the addition of Triton X-100).
as §1

Compound: CCCCCCCCCOC(=O)CCCN(CCO)CCCCCCCC(=O)OC(CCCCCCCC)CCCCCCCC [Compound 26, Heptadecan-9-yl 8-((2-hydroxyethyl)(4-(nonyloxy)-4-oxobutyl)amino)octanoate]
- Total flux (p/s) 0.001 mpk Dose (mice): 3.90E+06 p/s
- Total flux (p/s) 0.01 mpk Dose (mice): 6.13E+07 p/s
- % Lipid Remaining in liver, 48 h* 2 mpk (rats): 20%

Compound: CCCCCCCCC(C)OC(=O)CCCCCCCN(CCO)CCCCCCCC(=O)OC(CCCCCCCC)CCCCCCCC (stereo not drawn) [Compound 48, decan-2-yl 8-((8-(heptadecan-9-yloxy)-8-oxooctyl)(2-hydroxyethyl)amino)octanoate]
- Total flux (p/s) 0.001 mpk Dose (mice): 4.69E+05 p/s
- Total flux (p/s) 0.01 mpk Dose (mice): 8.78E+06 p/s
- % Lipid Remaining in liver, 48 h* 2 mpk (rats): 7.22%

Compound: CCCCCCCCC(CC)OC(=O)CCCCCCCN(CCO)CCCCCCCC(=O)OC(CCCCCCCC)CCCCCCCC (stereo not drawn) [Compound 49, heptadecan-9-yl 8-((2-hydroxyethyl)(8-oxo-8-(undecan-3-yloxy)octyl)amino)octanoate]
- PDI [1]: 0.110
- Size (nm) [1]: 73.1 nm
- % Lipid Remaining in liver, 48 h* 2 mpk (rats): 12.6%

Compound: CCCCCCCCC(CCC)OC(=O)CCCCCCCN(CCO)CCCCCCCC(=O)OC(CCCCCCCC)CCCCCCCC (stereo not drawn) [Compound 50, dodecan-4-yl 8-((8-(heptadecan-9-yloxy)-8-oxooctyl)(2-hydroxyethyl)amino)octanoate]
- Total flux (p/s) 0.001 mpk Dose (mice): 6.56E+05 p/s
- Total flux (p/s) 0.01 mpk Dose (mice): 1.13E+07 p/s
- % Lipid Remaining in liver, 48 h* 2 mpk (rats): 15.9%

Compound: CCCCCCCCC(CCCCCCCC)OC(=O)CCCCCCCN(CCO)CCCC(=O)OC(CCCCC)CCCCCCCC (stereo not drawn) [Compound 71, Heptadecan-9-yl 8-((2-hydroxyethyl)(4-oxo-4-(tetradecan-6-yloxy)butyl)amino)octanoate]
- PDI [1]: 0.11
- Size (nm) [1]: 60.1 nm
- EE (%) [2]: 96.1%

Compound: CCCCCCCCCOC(=O)CCCCCCCN(CCCCCCCC(=O)OC(CCCCCCCC)CCCCCCCC)CCCN/C(=N/C#N)N(C)C [Compound 168, Heptadecan-9-yl (Z)-8-((3-(2-cyano-3,3-dimethylguanidino)propyl)(8-(nonyloxy)-8-oxooctyl)amino)octanoate]
- PDI [1]: 0.1
- Size (nm) [1]: 80.7 nm
- EE (%) [2]: 94.35%
